Assay [1] deals with Klebsiella pneumoniae (Kpn, KPWT, ATCC #700603). The experiment in a line: MIC against Klebsiella pneumoniae reference strain KPWT. The format is cell-based. The conditions noted are these: Klebsiella pneumonia KPWT, Table 5 (unit not given); in µg/mL.
Assay [2] has as its system Pseudomonas aeruginosa PR1 (clinical isolate with intermediate aminoglycoside resistance). Put plainly: MIC against Pseudomonas aeruginosa clinical isolate PR1. In kind it is cell-based. To be noted: Pseudomonas aeruginosa resistant strain PR1.
In assay [3] the test system is Pseudomonas aeruginosa PR2 (clinical isolate with intermediate aminoglycoside resistance). The experiment in a line: MIC against Pseudomonas aeruginosa clinical isolate PR2. In kind it is cell-based. The conditions noted are these: Pseudomonas aeruginosa resistant strain PR2.
Assay [4] concerns Pseudomonas aeruginosa PR3 (high-level, efflux-mediated, pan-aminoglycoside resistance). The experiment in a line: MIC against Pseudomonas aeruginosa clinical isolate PR3. In kind it is cell-based. The conditions noted are these: Pseudomonas aeruginosa resistant strain PR3.
Assay [5] concerns Klebsiella pneumoniae KR1 (clinical isolate with intermediate aminoglycoside resistance). The experiment in a line: MIC against Klebsiella pneumoniae clinical isolate KR1. The format is cell-based. To be noted: Klebsiella pneumonia KR1; in µg/mL. An excerpt:
(§1) Klebsiella pneumoniae (Kpn) and Escherichia coli (Eco) are gram-negative (like Pae), enteric pathogens with increasing clinical relevance. Many clinical isolates of Kpn and Eco harbor extended-spectrum beta-lactamases and are no longer sensitive to most beta-lactam antibiotics. We acquired clinical isolates of Klebsiella pneumoniae and Escherichia coli (Micromyx LLC, Kalamazoo, Mich.) and used this panel to test compounds for anti-enteric activity.

The subject of assay [6] is Klebsiella pneumoniae KR3 (clinical isolate possessing high-level aminoglycoside resistance). Put plainly: MIC against Klebsiella pneumoniae clinical isolate KR3. In kind it is cell-based. To be noted: Klebsiella pneumonia KR3; in µg/mL.
From the text: as §1

The subject of assay [7] is fifty resistant contemporary clinical isolates of Klebsiella pneumoniae. The experiment in a line: MIC90 against panel of resistant clinical isolates of Klebsiella pneumoniae. In kind it is cell-based. The conditions noted are these: stringent panel of resistant clinical isolates, Table 5. An excerpt: Using this stringent Klebsiella pneumoniae panel, we tested a subset of compounds of the invention.

Another assay deals with panel of E. coli strains. The experiment in a line: MIC90 against a panel of E. coli strains. In kind it is cell-based. The conditions noted are these: in µg/mL.
The test system of assay [8] is Acinetobacter baumannii AB1. The experiment in a line: MIC against Acinetobacter baumannii clinical isolate AB1. The format is cell-based. From the text:
(§2) Acinetobacter baumannii is another clinically important and very challenging gram negative pathogen. Members of the Acinetobacter genus, including baumannii, have a remarkable ability to upregulate and acquire resistance determinants. Coupled with its ability to survive for prolonged periods in a hospital environment, A. baumannii is an emerging threat for healthcare institutions globally. We acquired clinical isolates of Acinetobacter baumannii and used this panel to test compounds for anti-Acinetobacter activity. We first tested reference AGs against our panel of Aba strains.

The test system of assay [9] is Acinetobacter baumannii AB2. Put plainly: MIC against Acinetobacter baumannii clinical isolate AB2. The format is cell-based.
From the text: as §2

Assay [10] relates to Acinetobacter baumannii AB3. The experiment in a line: MIC against Acinetobacter baumannii clinical isolate AB3. In kind it is cell-based.
From the text: as §2

Assay [11] concerns fifty resistant contemporary clinical isolates of Acinetobacter baumannii. The experiment in a line: MIC90 against panel of resistant clinical isolates of Acinetobacter baumannii. The format is cell-based. From the text:
As in the case of Pseudomonas aeruginosa and Klebsiella pneumoniae, we considered whether the SAR observed against select Acinetobacter baumannii strains 1, 2 or 3 was indicative of general potency. […] Using this stringent Acinetobacter baumannii panel, we tested a subset of compounds of the invention.

The next assay has as its system P. aeruginosa 6294 MLP-3. Put plainly: Rat neutropenic thigh model. The format is in vivo. The protocol:
The compound identified as SXP 2523 was selected for further testing in vivo. Twenty male Sprague Dawley rats were pre-treated with cyclophosphamide to render them neutropenic on day −4 and day −1 with 100 mg/kg and 75 mg/kg respectively. Rats were infected with P. aeruginosa 6294 MLP-3, via injection into the right thigh muscle of 0.1 mL per rat. Two hours post infection rats were treated intravenously with either SXP-2523 or amikacin in a total dose of 10 or 60 mg/kg, respectively. The test article and control agent were delivered at 2, 4, and 6 hours post infection. Five rats were treated with each drug concentration. One group of five rats was euthanized at initiation of treatment and thigh CFUs were processed (T=Rx). Twenty-four hours post infection rats were euthanized by CO2 inhalation. The right thigh muscles of the rats were aseptically removed, weighed, homogenized, serially diluted, and plated on MacConkey medium. The plates were incubated overnight at 37° C. in 5% CO2. CFU per gram of thigh was calculated by enumerating the plated colonies then adjusting for serial dilutions and the weight of the thigh. The following table 7 summarizes the results Table 6: […]

Assay [12] relates to resistant strain of P. aeruginosa (P. aeruginosa 6294 MLP-3). Put plainly: Rat neutropenic thigh model against resistant P. aeruginosa. The format is in vivo. The protocol: The compound identified as SXP 2523 was further tested in vivo against a resistant strain of P. aeruginosa. Twenty male Sprague Dawley rats were rendered neutropenic by treatment with cyclophosphamide on day −4 and day −1 with 100 mg/kg and 75 mg/kg, respectively. Rats were infected with P. aeruginosa 6294 MLP-3, via injection into the right thigh muscle of 0.1 mL per rat. Two hours post infection rats were treated intravenously with either SXP-2523 or amikacin in a total dose of 10 or 60 mg/kg, respectively. The test article and control agent were delivered at 2, 4, and 6 hours post infection. Five rats were treated with each drug concentration. One group of five rats were euthanized at initiation of treatment and thigh CFUs were determined (T=Rx). Twenty-four hours post infection; rats were euthanized by CO2 inhalation. The right thigh muscles of the rats were aseptically removed, weighed, homogenized, serially diluted, and plated on BHI medium. The plates were incubated overnight at 37° C. in 5% CO2. CFU per gram of thigh was calculated by enumerating the plated colonies then adjusting for serial dilutions and the weight of the thigh.

Setting [13] is: Log CFU/thigh, total dose 10 mg/kg SXP-2523 or 60 mg/kg amikacin iv.
Setting [14] is: rat neutropenic thigh model, total dose 10 mg/kg iv.
Setting [15] is: resistant P. aeruginosa, Log CFU/thigh, total dose 10 mg/kg SXP-2523 or 60 mg/kg amikacin iv.

Values after ≈ are worked out from the molar mass of the structure shown.

Consider `NCCCNCC1OC(OC2C(NC(=O)C(O)CCN)CC(N)C(OC3OC(CN)C(O)CC3N)C2F)C(O)C(N)C1O` (centres unmarked) [SXP 2523], for which the “MIC KPWT” value in [1] was 0.5-1. Besides, the “MIC PR1” value in assay [2] lay in the range of 1 to 2 µg/mL. In addition, the “MIC PR2” value in assay [3] was determined as 0.5 µg/mL (≈ 0.798 µM). Further, the “MIC PR3” value in assay [4] was 4 µg/mL (≈ 6.38 µM). Also, the “MIC KR1” value in [5] is on record as 0.5-1. For the same compound, the “MIC KR3” value in assay [6] amounted to 1. This compound displayed an MIC90 Klebsiella pneumonia in assay [7] of 1 µg/mL (≈ 1.6 µM). Further, in the assay on panel of E. coli strains, the “MIC90 E. coli” value worked out at 2. Also, the “MIC AB1” value in assay [8] fell in the range of 2 to 4 µg/mL. Moreover, the “MIC AB2” value in assay [9] was determined as 1 µg/mL (≈ 1.6 µM). Also, in [10], the “MIC AB3” value lay in the range of 4 to 8 µg/mL. In addition, the “MIC90 Acinetobacter baumannii” value in assay [11] was found to be 4 µg/mL (≈ 6.38 µM). In addition, the entries for the “Change from 24 hr. control” value (with P. aeruginosa 6294 MLP-3 (setting [13]); in assay [12] (setting [15])) were −0.71 and −4.94, respectively. Moreover, the results for the “Change from T = Rx controls” value (with P. aeruginosa 6294 MLP-3 (setting [13]); in [12] (setting [15])) were 2.37 and −1.78, respectively. Besides, the “Log CFU/thigh” value in the assay on P. aeruginosa 6294 MLP-3 (neutropenic male Sprague Dawley rats, iv at 2, 4, 6 h post infection, total dose 10 mg/kg SXP-2523 or 60 mg/kg amikacin, 24 h post infection) is reported as 6.55 Log CFU/thigh; in assay [12] (resistant P. aeruginosa, neutropenic male Sprague Dawley rats, iv at 2, 4, 6 h post infection, total dose 10 mg/kg SXP-2523 or 60 mg/kg amikacin, 24 h post infection), 1.71 Log CFU/thigh. Besides, the “efficacy against P. aeruginosa in animal model” value with P. aeruginosa 6294 MLP-3 (setting [14]) is given as “effective against P. aeruginosa”. Besides, in assay [12] (setting [14]), the “efficacy against amikacin-resistant P. aeruginosa in animal model” value is reported as “effective against amikacin-resistant P. aeruginosa”.

The values above are taken from US8586552B2, “4,6-substituted 2,5-dideoxystreptamine aminoglycoside antibiotics” (SelectX Pharmaceuticals, Inc., priority 2012, dated 2013).
